According to ChEMBL document CHEMBL3507680, “University of Dundee, Gates Library screen for HepG2 cell viability”:

Experiment: Human HepG2 cell viability assay in 384 well format
Type: toxicity, cell-based
Parameters: dose 125 nL, time 70.5 hour; concentration not given beside the values
Settings: HepG2 cells, read-out: Inhibition

Compound | cytotoxicity at 70.5 h [%]
Cc1nsc(N2CCN(CC(=O)NCc3ccc(F)cc3)CC2)n1 | -0.931
O=C(CC1CC1)NC[C@]12COC[C@H]1CN(c1ncccn1)C2 | -8
O=C(CN(CC1CCC1)CC(F)(F)F)N1CCCC1 | -6.18
Cn1ncc2c1CN(C(=O)Cc1ccccn1)CC2COCC1CC1 (stereo not drawn) | -10.6
O=C(NCCOc1cccc(Cl)c1)C1CC(=O)N(CC2CC2)C1 (stereo not drawn) | 40.6
CCn1cnnc1CNC(=O)NC(c1ccc(OC)cc1)C1CC1 (stereo not drawn) | -6.45
CCCc1cc(N2CCC(N[C@H]3CC[C@H](O)CC3)CC2)nc(C)n1 | -4.54
COc1cc(C)nc(N2CCN(C(=O)CN(C)C(C)C)CC2)n1 | 29
Cc1ncsc1CN1CC[C@H](O)[C@@H](n2cnc3c(N)ncnc32)CC1 | 8.32
CC(C)CC(=O)N1CCC(c2nnc3n2CCCCC3)CC1 | -0.981
Cc1nn(C(C)C)c(C)c1S(=O)(=O)Nc1cccc(F)c1 | -0.473
Cc1cc(N2CCC(Cc3cnccn3)C2)ncn1 (stereo not drawn) | -7.8
O=C(Cc1ccccn1)N1C[C@@H]2CC[C@H](C1)N(Cc1ccccc1)C2=O | 6.93
CC(=O)N1CCC2(CC1)CC(N1CCOCC1)c1ccc(C)cc12 (stereo not drawn) | -8.04
N#CC1COCCN1C(=O)c1ccc2cc[nH]c2c1 (stereo not drawn) | -9.25
Cc1cc(CN2CCN(c3nn4cc(C)nc4s3)CC2)on1 | -7.1
Cc1cc(O)c(OCC(=O)/N=c2\[nH]c(C)c(C)s2)cn1 | 5.16
CN(C)[C@@H]1CN(Cc2cccnc2)C[C@H]1c1cn(C)c2ccccc12 | -2.36
Cc1noc(C)c1CS(=O)(=O)CC(=O)NCCc1ccccc1 | 15.9
CCN1CCN(C(=O)c2ccc(=O)n(C)c2)c2ccccc21 | -3.86
CSCC[C@H](NC(=O)CCn1cc(C(C)=O)c2ccccc21)C(=O)O | -8.28
O=C1CC2(CCN(C(=O)c3ccccn3)C2)Nc2ccccc2N1 (stereo not drawn) | -14.7
c1cn(Cc2nnc(C3CCN(C4CCCCC4)CC3)n2C2CC2)cn1 | -1.01

Compound | cytotoxicity at 70.5 h [%]
CC1CCN(C(=O)C2(Cc3cc(C4CCOC4)no3)CCNCC2)CC1 (stereo not drawn) | -1.77
CC(C)CCN1C(=O)c2ccc(C(=O)NCCc3c[nH]cn3)cc2C1=O | -4.63
Cc1nn(C)c(N(C)C)c1CNC(C)COc1ccccc1F (stereo not drawn) | -11.1
CN(Cc1ccc(-n2cncn2)cc1)Cc1ncc[nH]1 | -0.834
O=C(NCc1cccnc1OCC(F)(F)F)N1CCOCC1 | 7.44
CCN1c2ccc(-c3cncn3CCCn3ccnc3C)cc2CC1C (stereo not drawn) | -0.494
COCCn1ccnc1C1CCCN(C(=O)c2ccccc2C#N)C1 (stereo not drawn) | 0.955
Cn1cc(C2CCCN2C(=O)c2ccc(OCC3CC3)nc2)cn1 (stereo not drawn) | -4.15
COc1ccc(C2CC(=O)Nc3c2cnn3C)cc1 (stereo not drawn) | 4.68
Cc1csc(N2CCCN(C(=O)c3occc3C)CC2)n1 | 1.54
CCC[C@@H]1CN(Cc2cc3c(cc2OC)OCO3)C[C@H]1C(=O)O | -2.47
Cc1ccsc1CNC(=O)NC1CCCc2c1cnn2CCO (stereo not drawn) | -6.7
CC[C@]12CN3C[C@](C)(CN(C1)C3c1[nH]c(=O)[nH]c(=O)c1C)C2=O (stereo partly drawn) | -2.75
COCC1COCCC12CCN(C(=O)CCc1ccccc1)CC2 (stereo not drawn) | 5.59
Cc1csc(CNC(=O)NC2CCN(c3ncccn3)CC2)n1 | -11.3
CCc1nc(CN2CCCN(C(=O)c3cccn3C)CC2)cs1 | 2.1
O=C(c1cnccn1)N1CCN(Cc2csc(-c3ccccc3)n2)CC1 | 10.5
c1ccc(Cn2cccn2)c(CN2CCCCC2CCn2ccnc2)c1 (stereo not drawn) | 0.54
CC(C)=CCC1(CO)CCCN(Cc2nccs2)C1 (stereo not drawn) | -9.67
Cc1ccc(S(=O)(=O)N(C)Cc2cnccn2)cc1N(C)C | -1.07
O=C1COC2(CCN(Cc3nccs3)CC2)CN1c1ccccc1 | 5.28
CC(C)c1cc(CN2CCC(N)CC2)no1 | -6.06
Cc1ccc(CN(C(=O)NC2CCS(=O)(=O)C2)C2CC2)o1 (stereo not drawn) | -7.82

Compound | cytotoxicity at 70.5 h [%]
CCOC(=O)CNC(=O)c1cc(-c2ccccc2)nc2ncnn12 | 1.18
Cn1ccnc1CN1CCN(CC(=O)NCC(F)(F)F)CC1 | -10.6
COc1ccc2c(OCC(=O)NC(C)(C)C)ccnc2c1 | -18.7
CCN(CC1CCCO1)C(=O)Nc1cccc(N2CCOCC2)c1 (stereo not drawn) | 0.519
CCOCC1CN(C(=O)c2cccc(C)n2)Cc2cnn(C)c21 (stereo not drawn) | -11.5
O=C(NCC(O)COc1cccc(F)c1)c1ccoc1 (stereo not drawn) | -13.2
Cc1nnc(NCC(c2ccco2)N(C)C)c(C#N)c1C (stereo not drawn) | -4.51
Cn1cc(C[C@H]2[C@@H](OCC3CC3)CCN2C(=O)c2ccc[nH]2)cn1 | 21.2
COc1ccc(S(=O)(=O)NCC(N)c2ccccc2)c(C)c1 (stereo not drawn) | -5.68
CC/C=C(/C)C(=O)N1CSCC1C(=O)NC1=NCCS1 (stereo not drawn) | -7.18
COCC(=O)N1CCCC(c2nc(N)ncc2-c2cccc(F)c2)C1 (stereo not drawn) | 2.19
Cc1nc(C2(NCc3ccc(C#N)cc3F)CCCC2)no1 | -18.6
CCN(Cc1c(C)nn(C)c1C)C(=O)C1COc2ccccc2C1 (stereo not drawn) | -4.62
O=C(CCC1CCCCO1)NCc1cnn(-c2ccc(F)cc2F)c1 (stereo not drawn) | 8.18
O=C(N1CCCC1)N1CCc2c(CNc3ncccn3)cncc2C1 | -1.33
CC(NC1CCN(CCS(C)(=O)=O)CC1)c1ccc(Cl)cc1 (stereo not drawn) | 19.3
CCc1nc(CN2CCCN(CC(=O)N3CCOCC3)CC2)no1 | 41.7
Cn1ccc(C(=O)NCc2ccc(N3CCCC3)nc2)cc1=O | -5.51
CCN1C(=O)CC(c2ccccc2)C12CCN(c1ncc(C)cn1)CC2 (stereo not drawn) | -3.7
O=C(c1c2c(N3CCCC3)ncnc2n2ccccc12)N1CCCC1 | -11
O=C(N[C@H]1COC[C@@H]1N1CCCC1)c1csc(-c2cccs2)n1 | -10.9
O=C1NCCN1CCNc1cc(-c2ccccc2)nc2ccnn12 | -2.75
COCCC1CCCCN1Cc1nc(Cc2cccc(F)c2)no1 (stereo not drawn) | -2.75

Compound | cytotoxicity at 70.5 h [%]
Cc1cc(C)nc(N2CCCC2c2cccnc2)n1 (stereo not drawn) | -2.91
CCc1n[nH]c(C2CN(CCc3ccncc3)CCO2)n1 (stereo not drawn) | -7.11
CCn1nc(C)c(NC(=O)C(C)C)c1C | -2.76
CCOc1ccccc1-c1cc2c(cc1C(N)=O)OCO2 | 9.52
CC(Cn1cncn1)NC(=O)N1CC2(CCCC2)c2ccccc21 (stereo not drawn) | -1.39
CN1CC2(CCN(Cc3cccc(C#N)c3)CC2)CC1=O | 20.6
Cc1ccccc1OC(C(=O)N1CCC2(CC1)CN(C)C(=O)O2)C(C)C (stereo not drawn) | -4.56
CC(C)c1nc(CN(C)C2CCN(CCS(C)(=O)=O)C2)no1 (stereo not drawn) | -4.02
Cc1[nH]c(=O)[nH]c(=O)c1CC(=O)N1CCC(Oc2ccc(F)cc2)CC1 | -12.2
O=C(c1ccc(-n2cccn2)nc1)N1CCC(c2ccn[nH]2)C1 (stereo not drawn) | -8.23
Cc1n[nH]c(C)c1CNCC(O)c1cccc(Cl)c1 (stereo not drawn) | -13.1
CC(=O)Nc1ccc(Oc2cc(C)nc(C3CCNCC3)c2)cc1 | -15.5
CC(C)CN1CCCn2nc(CNC(=O)CN3CCOC3=O)cc2C1 | -7.41
O=C(NC1CC1)[C@H]1C[C@H]2OCC[C@H]2N(Cc2ccc(F)cc2)C1 | -6.46
COc1ccc(CCC2CCCN(C(=O)CCc3cc(O)no3)C2)cc1 (stereo not drawn) | -4.3
Cc1nccn1CCC1CCN(C(=O)C2CC3(CCNCC3)CN2)CC1 (stereo not drawn) | -8.48
COc1cc(NC(=O)c2nc3ccccc3n(C)c2=O)cc(OC)c1 | -14.2
COc1ccc(-c2nnsc2C(=O)N2CCN(C(C)=O)CC2)cc1 | -12.8
CN1CCN(C2COC3(CCN(Cc4ccsc4)CC3)C2)CC1 (stereo not drawn) | -8.09
CS(=O)(=O)N1CCO[C@@H]2CN(C(=O)N3CCOCC3)CC[C@@H]2C1 | -6.09
Cc1ccc(OCCN2CCN(Cc3cnn(CCO)c3)CC2)cc1 | -0.0785
COc1cccc(C(=O)N2C[C@@H](C(=O)O)[C@H](c3ccccc3C)C2)c1 | 6.74
CC(C)NC(=O)[C@H]1C[C@@H]2[C@@H](C1)OCCN2Cc1cccs1 | -2.88

Compound | cytotoxicity at 70.5 h [%]
CN(C)C(CNC(=O)NCc1cc[nH]n1)c1ccco1 (stereo not drawn) | 0.0309
CN(C(=O)c1ccccc1N(C)S(C)(=O)=O)c1ccc(C(C)(C)C)cc1 | 5.15
CSCc1cc(F)ccc1CNCc1ccncc1 | 4.11
O=C(NCC1CC1)Nc1cccc(N2CCN(CC3CC3)CC2)c1 | -0.269
CCc1ccc(CN(C)Cc2nc(-c3cnccn3)no2)nc1 | -13.4
Cc1ccc(S(=O)(=O)c2ncccc2CN2CCN(C)CC2)cc1 | -11.2
CC(CN1CCC(c2ccccc2)CC1)n1cnc2ccccc21 (stereo not drawn) | -18.3
N#Cc1ccccc1N1CCCN(C(=O)CCc2cccs2)CC1 | -8.79
CC(C)c1nc(C2CCCN2CCCc2nc3ccccc3o2)no1 (stereo not drawn) | -12.9
CC(C)CC(NC(=O)Nc1ccc(F)c(Cl)c1)C(=O)O (stereo not drawn) | -8.78
Cn1cnnc1S(=O)(=O)C1CCN(S(=O)(=O)C2CC2)CC1 | -1.29
CCn1cc(S(=O)(=O)NCC(OC)c2cccc(Cl)c2)cn1 (stereo not drawn) | -6.64
Cc1ccc(CCNC(=O)NC2CCN(CC(F)(F)F)C2=O)cn1 (stereo not drawn) | -5.39
COCCn1cc(NCc2cn(C)nc2-c2ccncc2)cn1 | 21.2
Cc1cnn(C2CCCN(C(=O)CCc3cnn(C)c3)C2)c1 (stereo not drawn) | -4.01
CCC(C)(C)NC(=O)c1nnn(-c2cccc3c2CCN(C)C3)c1C | 9.39
COc1cc(CN2CC[C@@]3(CCCO3)[C@@H](O)C2)ccc1F | -7.93
CN(C)C(=O)C1CCc2nnc(C(C)(C)C)n21 (stereo not drawn) | -3.32
Cc1cccc(CN(Cc2ccccc2)Cc2nccs2)n1 | -11.1
O=C(NCCc1c[nH]c2ccccc12)C1(n2cnnn2)CCCCC1 | -28.6
O=C(Nc1cccnc1)[C@H]1CO[C@H]2CCNC[C@H]2C1 | 0.847
